These results are taken from paper PMC4028696, “Development of a screen to identify selective small molecules active against patient-derived metastatic and chemoresistant breast cancer cells” (Breast Cancer Research : BCR, 2013).

Some results are limits rather than exact numbers.

Data set [1] has as its system PE904557a, PE900642a and PE1100025 cells. Nature of the data set: Live/dead assay, three-dimensional Matrigel culture. The format is cell-based, human. Particulars: 30 or 60 μM, five days. The protocol:
For the three dimensional culture experiments, PE904557a, PE900642a and PE11000025 cells were seeded in a 24-well ultra low adhesion plate (Costar) at approximately 2 × 10^6 cells/mL in mammary epithelial cell growth medium (MEGM) complete media (Lonza, Basel Switzerland) and were cultured overnight. The resulting aggregates were separated from single cells by differential centrifugation. Next, 20 μL of growth factor reduced Matrigel (BD Biosciences) was added to each well of a black walled clear bottom 24-well plate (Greiner Bio-one) and was allowed to solidify to form a base layer. The aggregates were then suspended in Matrigel on ice and approximately 300 aggregates in 40 μL were added to each well. After the Matrigel solidified, modified M87 media was added to each well and the cells were cultured overnight. The media were subsequently aspirated and the cells were treated with 30 or 60 μM C-6 or the corresponding 0.06% (v/v) DMSO vehicle control. After culturing for five days, the viability and cytotoxicity were determined utilizing the Live/dead assay (Life Technologies) in the same manner as described above. Multiple Z-planes of the organoids were subsequently imaged utilizing an IX81 microscope (Olympus) running Slide Book 5.0 software (Intelligent Imaging Innovations).

A further data set concerns LC3A/B-II. The data set is described as follows: Western blot for LC3A/B-II (autophagy). The format is cell-based, human. Particulars: T47D cells, 30 μM, 48 hours. The protocol:
Cells were lysed in cold radioimmunoprecipitation assay buffer (50 mM Tris HCl, 150 mM NaCl, 0.1% sodium dodecyl sulfate (SDS), 0.5% sodium deoxycholate, 1% Triton X-100, pH = 8.0) supplemented with protease inhibitor cocktail (Sigma), phosphatase inhibitor cocktail 2 (Sigma) and 1 mM dithiothreitol (DTT) (Sigma). The lysate was sonicated for 30 seconds using a 450 Sonifier (Branson Ultrasonics, Danbury, CT, USA) and was centrifuged at 14,000 RPM for five minutes at 4°C. The protein concentration was determined using the BCA protein assay kit (Peirce, Rockford, IL, USA) and the samples were boiled for five minutes with 4× SDS Laemmli buffer. Equal amounts of protein were resolved on SDS polyacrylamide gels and transferred to an Immobilon-FL PVDF membrane (EMD Millipore). Blots were blocked in Odyssey Blocking Buffer (LI-COR, Lincoln, NE, USA) for one hour at room temperature, stained with primary antibodies overnight at 4°C, washed, and stained with IR800CW or IR680 anti-mouse or rabbit secondary antibodies (LI-COR) for one hour at room temperature. Blots were imaged with the Odyssey Infrared Imaging System (LI-COR).
In general terms: In western blotting, separated proteins are transferred to a membrane and probed.

A short description of data set [2]: Dose response assay, ATPlite viability, four days. The format is cell-based. Particulars: human, MCF-10A cells, 200 μM C-6, read-out: cells still viable. As to the method: Cells were seeded in white 96-well plates (Costar, Tewksbury, MA, USA) in 100 μL of their respective media at varying densities to achieve 80% to 90% confluency after five days in culture. The compounds dissolved in DMSO were diluted in their corresponding media containing 2% FBS and an EP Motion 5075 (Eppendorf North America, Hauppauge, NY, USA) liquid handler was utilized to perform a serial dilution. […] After the cells were cultured for 24 hours, the media were aspirated and the cells were treated with the compounds and vehicle controls in triplicate. After four days of treatment, viability was determined utilizing the ATPlite 1step assay system (Perkin Elmer, Waltham, MA, USA) according to the manufacturer's instructions. Luminescence measurements were acquired utilizing a Perkin Elmer 2104 EnVision plate reader. Raw luminescence values were normalized to the DMSO vehicle control wells.

Consider `COc1cc(OC)cc(C(C)c2ccc(NC(=O)OC(C)(C)C)cc2)c1` (stereo not drawn) [C-6], for which the “cell death in three-dimensional culture” value in data set [1] was “able to induce cell death”. Also, the LC3A/B-II levels result with LC3A/B-II is given as “small increase”. Further, the viability at 4 days, 200 μM in data set [2] is greater than 70%.
